Values of other authors as cited in article PMC12308805, “Ultrahigh-Throughput Virtual Screening Strategies against PPI Targets: A Case Study of STAT Inhibitors” (Journal of Chemical Information and Modeling, 2025).
Square brackets hold non-standard residues; d marks the D form. Peptide text beside a SMILES is read from it. * marks the point of attachment. pY = N[C@@H](Cc1ccc(OP(=O)(O)O)cc1)C(=O)O; Nle = CCCC[C@H](N)C(=O)O; NHBn = c1ccc(CN*)cc1

Tested on: STAT3
Conditions: cited from earlier work

Compound	Type (known STAT3 active)
CC(C)C[C@H](NC(=O)/C=C/c1ccc(OP(=O)(O)O)cc1)C(=O)N1CCC[C@H]1C(=O)N[C@@H](CCC(N)=O)[C@@H](C)OCc1ccccc1 [CHEMBL583758]	Active

Same assay, conditions: sheet 6QHD_actives_decoys, retrospective screening set for STAT3 SH2 domain (PDB 6QHD); decoys are presumed inactives, not tested; ref DUD-E; cited from earlier work

Compound	Type
CC(=C\C(=O)O)/C=C(\C)C[C@@H](C)CCCC[C@H](O)[C@@H](CO)C(=O)OC[C@H]1O[C@@H](O)[C@@H](O)[C@@H](O)[C@H]1O [Decoy876]	Inactive (Decoy)
Cc1ccc(S(=O)(=O)NCCc2nnc(NC(=O)CSCc3ccc([N+](=O)[O-])cc3)s2)cc1 [Decoy939]	Inactive (Decoy)
COc1cc(-c2ccc(/N=N/c3ccc4c(S(=O)(=O)O)cc(S(=O)(=O)O)c(N)c4c3O)c(OC)c2)ccc1/N=N\c1c(O)ccc2ccccc12 [Decoy851]	Inactive (Decoy)
COc1ccc(CCNc2ccc3nnc(CCNS(=O)(=O)c4ccccc4OC)n3n2)cc1OC [Decoy899]	Inactive (Decoy)
Cc1cc(C)nc(N/C(=N/C(=O)Nc2cccc(Cl)c2)NCCSCc2[nH]cnc2C)n1 [Decoy901]	Inactive (Decoy)
CC(/C=C/C=C(\C)C(=O)O)=C\C=C\C=C(C)\C=C\C=C(/C)C(=O)O[C@@H]1O[C@H](CO[C@@H]2O[C@H](CO)[C@@H](O)[C@H](O)[C@H]2O)[C@@H](O)[C@H](O)[C@H]1O [Decoy785]	Inactive (Decoy)
COc1ccc(OC[C@@H](O)Cn2c(C)c(C#N)c(=O)n(C[C@@H](O)COc3ccc(OC)cc3)c2=O)cc1 [Decoy738]	Inactive (Decoy)
COc1ccc(C(OC[C@H]2O[C@H](Oc3ccc([N+](=O)[O-])cc3)[C@@H](O)[C@@H](O)[C@@H]2O)(c2ccccc2)c2ccc(OC)cc2)cc1 [Decoy888]	Inactive (Decoy)
COc1ccccc1OCCNC[C@H](O)COc1cccc2c1c1ccccc1n2C[C@H](O)COc1cccc2[nH]c3ccccc3c12 [Decoy900]	Inactive (Decoy)
CCN(CC)c1ccc(/C=N/Nc2nc(SCC(=O)n3nc(C)cc3C)n[nH]2)c(O)c1 [Decoy937]	Inactive (Decoy)
CC1=CC(=O)CC(C)(C)[C@H]1/C=C/[C@@H](C)O[C@@H]1O[C@H](CO)[C@@H](O)[C@H](O)[C@H]1O[C@@H]1OC[C@](O)(CO)[C@H]1O [Decoy772]	Inactive (Decoy)
C/C=C(/C[C@H](O)N(C=O)Cc1cnc(C)nc1N)SS/C(=C/C)C[C@@H](O)N(C=O)Cc1cnc(C)nc1N [Decoy935]	Inactive (Decoy)
CCOC(=O)c1c(NC(=O)/C(O)=N/N=C/c2cn(-c3ccccc3)nc2-c2ccc(OC)cc2)sc2c1CCCC2 [Decoy838]	Inactive (Decoy)
COc1ccc(CCN/C(=N/c2nc(C)cc(C)n2)NS(=O)(=O)c2ccc(Br)cc2)cc1OC [Decoy898]	Inactive (Decoy)
O=C(O)c1ccccc1Nc1ccc(C(F)(F)F)cc1Nc1ccc(CNCc2c[nH]c(=O)[nH]c2=O)cc1C(=O)O [Decoy840]	Inactive (Decoy)

Same assay, conditions: sheet 6QHD_actives_decoys; known STAT3 actives of the retrospective screening set; ref ChEMBL / literature; cited from earlier work

Compound	Type (known STAT3 active)
NC(=O)C1CCN(C(=O)[C@@H]2Cc3cccc4c3N2C(=O)[C@@H](NC(=O)/C=C/c2ccc(OP(=O)(O)O)cc2)CC4)C1 (stereo partly drawn) [CHEMBL515762]	Active
CC(=O)NC[C@H](CCC(N)=O)NC(=O)[C@@H]1CCCN1C(=O)[C@H](CC(C)C)NC(=O)/C=C/c1ccc(OP(=O)(O)O)cc1 [CHEMBL573442]	Active
CC(C)C[C@H](NC(=O)/C=C/c1ccc(OP(=O)(O)O)cc1)C(=O)N1C[C@H]2C[C@H]2[C@H]1C(=O)N[C@@H](CCC(N)=O)[C@@H](C)OCc1ccccc1 [CHEMBL573443]	Active
CCCC[C@H](NC(=O)[C@H](Cc1ccc(OP(=O)(O)O)cc1)NC(C)=O)C(=O)N1CCC[C@H]1C(=O)N[C@@H](CCC(N)=O)C(=O)N[C@H](C(N)=O)[C@@H](C)O [CHEMBL197513] (Ac-[pY][Nle]PQT-NH2)	Active
CC(=O)N[C@@H](Cc1ccc(OP(=O)(O)O)cc1)C(=O)N[C@@H](CC(C)C)C(=O)N1CCC[C@H]1C(=O)N[C@@H](CCC(N)=O)C(=O)NCc1ccccc1 [CHEMBL194855] (Ac-[pY]LPQ-NHBn)	Active
CNC(=O)[C@H](CCC(N)=O)NC(=O)[C@@H]1Cc2cccc3c2N1C(=O)[C@@H](NC(=O)/C=C/c1ccc(OP(=O)(O)O)cc1)CC3 [CHEMBL454365]	Active
C1=Cc2nc1cc1ccc([nH]1)c(-c1ccccc1)c1nc(cc3ccc([nH]3)c2-c2ccccc2)C=C1 [CHEMBL207155]	Active

Same assay, conditions: sheet 6QHD_actives_decoys; retrospective screening set for STAT3 SH2 domain (PDB 6QHD); decoys generated with DUD-E and presumed inactive, not tested; ref DUD-E; cited from earlier work

Compound	Type
COCC(=O)Nc1c(I)c(C(=O)NC[C@H](O)CO)c(I)c(C(=O)N(C)C[C@H](O)CO)c1I [Decoy333]	Inactive (Decoy)
C=C(CCO)C(=O)OC[C@H]1OC[C@H](OC(=O)C(=C)CCO[C@@H]2O[C@H](COC(=O)C(=C)CCO)[C@@H](O)[C@H](O)[C@H]2O)[C@@H](O)[C@H]1O [Decoy493]	Inactive (Decoy)
O=C(NCCCN1CCOCC1)C(C(=O)NCCCN1CCOCC1)c1ncc(C(F)(F)F)cc1Cl [Decoy377]	Inactive (Decoy)
CC(=O)O[C@@H]1[C@@H](O)[C@@H](O[C@@H](C/N=C/c2ccc(O)c3ccccc23)[C@@H](CO)O[C@H](O)C/N=C/c2ccc(O)c3ccccc23)O[C@@H](CO)[C@H]1O [Decoy410]	Inactive (Decoy)
CCOC(=O)CNC(=O)[C@H](c1ccc(O)cc1)N(C(=O)c1snc(C(N)=O)c1N)c1ccccc1CC [Decoy513]	Inactive (Decoy)
CCc1nnc(NS(=O)(=O)c2ccc(NC(=O)c3ccc(S(=O)(=O)N(CCC#N)CCC#N)cc3)cc2)s1 [Decoy466]	Inactive (Decoy)
Nc1cnn([C@@H]2O[C@@H](COC(=O)c3ccccc3)[C@H](OC(=O)c3ccccc3)[C@@H]2OC(=O)c2ccccc2)c(=O)n1 [Decoy672]	Inactive (Decoy)
COc1cc(O)c(C(C)=O)c(O[C@@H]2O[C@@H](CO[C@H]3O[C@@H](CO)[C@@H](O)[C@@H](O)[C@H]3O)[C@@H](O)[C@@H](O)[C@H]2O)c1 [Decoy717]	Inactive (Decoy)
C=C1CC[C@@H]2[C@](C)(CC[C@H](O)[C@@]2(C)CO[C@H]2O[C@@H](CO[C@H]3O[C@@H](CO)[C@@H](O)[C@H]3O)[C@@H](O)[C@@H](O)[C@H]2O)[C@@H]1CC/C(C)=C\CO [Decoy611]	Inactive (Decoy)
CCOC(=O)Cn1nnnc1[C@@H](CC)N(Cc1ccc(F)cc1)Cc1cc2cc3c(cc2[nH]c1=O)OCCO3 [Decoy585]	Inactive (Decoy)
COc1ccc(CCN2C(=O)[C@H]3[C@@H](C2=O)[C@]2(N[C@@H]3Cc3ccc(O)c(O)c3)C(=O)Nc3ccc(Cl)cc32)cc1OC [Decoy728]	Inactive (Decoy)
CCOC(=O)c1ccc(N2C(=O)[C@@H](CC(=O)Nc3ccc(OCC)cc3)N(CCc3ccncc3)C2=S)cc1 [Decoy677]	Inactive (Decoy)
C=CCOC(=O)c1sc(NC(=O)[C@@H](C)n2c(N)nnc2SCc2ccccc2Cl)nc1C [Decoy562]	Inactive (Decoy)
Cc1nn(Cc2ccc(Cl)cc2Cl)c(C)c1NC(=S)Nc1ccc(S(=O)(=O)Nc2ncccn2)cc1 [Decoy456]	Inactive (Decoy)
OC[C@@H](O)CN(C[C@H](O)CO)c1ccc(Cc2ccc(N(C[C@H](O)CO)C[C@@H](O)CO)cc2)cc1 [Decoy620]	Inactive (Decoy)
CCCCCCCCCCC/C=C/C(=O)N[C@H]1[C@@H](O[C@H]2O[C@@H](CO)[C@@H](O)[C@@H](O)[C@H]2NC(C)=O)O[C@@H](C[C@H](O)[C@H]2O[C@@H](n3ccc(=O)[nH]c3=O)[C@@H](O)[C@H]2O)[C@@H](O)[C@H]1O [Decoy557]	Inactive (Decoy)
